# Measured values from US9545453B2, “CXCR4 inhibiting carriers for nucleic acid delivery” (Wayne State University, priority 2011, dated 2017).
# “Also recorded” adds a separate entry of the source.
# Legend:
# CXCR4 [1] = target: T1, CXCR4 (Homo sapiens, UniProt P61073); test: CXCL12-induced intracellular calcium flux (Fluo-3); format: cell-based; conditions: Fluo-3 calcium indicator, CXCL12 stimulation
# Excerpt: Binding of chemokine CXCL12 to its receptor CXCR4 triggers an intracellular signal transduction cascade comprising a transient increase in cytosolic free calcium.
# Target sequence in this assay (P61073 whole entry, species assumed): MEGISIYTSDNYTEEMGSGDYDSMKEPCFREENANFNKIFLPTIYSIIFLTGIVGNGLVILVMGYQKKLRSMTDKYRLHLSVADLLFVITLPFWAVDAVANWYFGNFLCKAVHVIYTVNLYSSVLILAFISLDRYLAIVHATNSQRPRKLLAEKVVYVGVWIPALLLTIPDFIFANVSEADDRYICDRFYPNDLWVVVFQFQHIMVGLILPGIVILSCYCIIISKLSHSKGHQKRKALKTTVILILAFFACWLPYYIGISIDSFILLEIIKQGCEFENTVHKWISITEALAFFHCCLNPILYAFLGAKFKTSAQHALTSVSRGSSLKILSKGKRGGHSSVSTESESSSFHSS
# [2] = complexes with nucleic acids
# Excerpt: Ability to condense DNA is a prerequisite for successful polyplex gene delivery. FIG. 1 schematically represents this process.
# CXCR4 [3] = target: T1, CXCR4; test: Phorbol myristate acetate-stimulated CXCR4 internalization; format: cell-based; conditions: 100 ng/mL phorbol myristate acetate
# Excerpt: It has been reported that CXCL12 and phorbol esters trigger CXCR4 internalization through entirely different uptake pathway (Signoret, Oldridge et al. 1997).
# Target sequence in this assay (P61073 whole entry): as the sequence (P61073 whole entry, species assumed) above
# CXCR4+U2OS cells [4] = test: Matrigel cell invasion assay towards CXCL12; format: cell-based, Human; conditions: CXCL12-mediated invasion, 16 h
# Procedure: The upper sides of the transwell inserts were coated with 40 μl Matrigel diluted in serum-free medium (v/v 1:3) per insert. The 24-well plates with coated inserts were then placed in 37° C. incubator for 2 h. CXCR4+U2OS cells were trypsinized and resuspended in different concentrations of drugs in serum-free medium for 30 min before adding to the inserts at a final concentration of 10,000 cells in 300 μl medium per insert. 20 nM CXCL12 in serum-free medium as the chemo-attractant was then added to corresponding wells in the companion plate. After 16 h, the non-invaded cells on the upper surface of the inserts were removed with a cotton swab. The invaded cells were then fixed and stained by dipping the inserts into Diff-Quick solution. The images were taken by EVOS ×1 microscope. Five 20× imaging areas were randomly selected for each insert and each sample was conducted in triplicate. Statistical significance of the observed differences in cell invasion was analyzed using non-parametric ANOVA with Dunn's multiple comparison test using GraphPad InStat (v. 3.10). P<0.05 was considered significant.
# To further confirm the CXCR4 antagonism of RPA and RPA/DNA polyplexes, the anti-metastatic ability was evaluated by a Matrigel cell invasion assay. […] The DNA dose used in the experiment with the polyplexes (1 μg/mL DNA) was in the range of typical doses used in transfection experiments.
# pDNA = test: DNA condensation by ethidium bromide exclusion assay; format: physicochemical; conditions: pH 7.4
# Procedure: The ability of P(AMD-CBA) to condense pDNA was determined by ethidium bromide exclusion (EtBr) assay by measuring the changes in EtBr/pDNA fluorescence. pDNA solution at a concentration of 20 μg/mL was mixed with EtBr (1 μg/mL) and fluorescence was measured and set to 100% using an excitation wavelength of 540 nm and an emission wavelength of 590 nm. Fluorescence readings were taken following a stepwise addition of the polycation solution, and the condensation curve for each polycation was constructed.
# The ability of P(Cyc-CBA) to condense pDNA was determined by ethidium bromide exclusion (EtBr) assay by measuring the changes in EtBr/pDNA fluorescence. pDNA solution at a concentration of 20 μg/mL was mixed with EtBr (1 μg/mL) and fluorescence was measured and set to 100% using an excitation wavelength of 540 nm and an emission wavelength of 590 nm. Fluorescence readings were taken following a stepwise addition of the polycation solution, and the condensation curve for each polycation was constructed.
# At pH 7.4, a w/w ratio above 2 was required for RPA to fully condense the DNA, which was higher than that required in case of RHB (w/w 1) and PEI (w/w 0.5). […] The redox stability of RPA/DNA polyplexes was tested by agarose gel electrophoresis after GSH treatment.
# [5] = Toxicity of copper complexes of P(AMD-CBA) (procedure of example 14); format: cell-based
# Procedure: 20,000 cells were seeded per well in 96-well plates 24 hours ahead. The culturing medium was first removed and then replaced with 150 μL of medium containing increasing concentration of the polycations. After 24 hours, the incubation medium was removed and a mixture of 100 μL of fresh serum-free medium and 20 μL of MTS reagent solution was added to each well. The cells were incubated for at 37° C. in CO2 incubator for 2 hours. The absorbance at wavelength 505 nm was then measured to determine cell viability. IC50 values were calculated by Prism Graphpad Software.
# Toxicity of polycations was also evaluated by MTS assay in Hep G2 cells and CXCR4+U2OS cells. […] Hep G2 cells were maintained in MEM supplemented with 10% FBS. Human epithelial osteosarcoma U2OS cells stably expressing human CXCR4 receptor fused to the N-terminus of enhanced green fluorescent protein were purchased form Fisher Scientific. The cells were cultured in DMEM supplemented with 2 mM L-Glutamine, 10% FBS, 1% Pen-Strep and 0.5 mg/ml G418. The cells were plated into 96-well microtiter plates at a density of 20,000 cells/well. […] After 2 h incubation, the absorbance was measured spectrophotometrically in Synergy 2 Microplate Reader (BioTek, VT) at a wavelength of 490 nm. The relative cell viability (%) was calculated as [A]sample/[A]untreated×100%.
# CXCR4+U2OS cells [6] = test: Luciferase transfection in CXCR4+U2OS cells; format: cell-based, Human; conditions: 100 ng/mL, serum-free medium, 4 h
smiles,measurement,setting,value
"c1cc(CN2CCCNCCNCCCNCC2)ccc1CN1CCCNCCNCCCNCC1 [AMD3100, 1,1′-[1,4-Phenylenebis(methylene)]bis[1,4,8,11-tetraazacyclotetradecane]]",Effect on CXCL12-induced calcium signaling (CXCR4-mediated),CXCR4 [1],strong antagonistic effect; also recorded: CXCL12 antagonists
same,Transfection level,[2],only background levels of transfection
same,Inhibition of phorbol-stimulated CXCR4 internalization,CXCR4 [3],do not inhibit
same,Blocked invasion (% of cells),CXCR4+U2OS cells [4],75%
same,Decrease in EtBr fluorescence,pDNA,about 30%
[Cl][Cu][Cl] [CuCl2],Toxicity with increasing copper content,[5],No toxicity
"CCCCCCCCCCCCCC(=O)O[C@@H]1[C@@H](C)[C@@]2(O)[C@@H](C=C(CO)C[C@]3(O)C(=O)C(C)=C[C@@H]23)[C@@H]2C(C)(C)[C@]12OC(C)=O [PMA, phorbol 12-myristate 13-acetate]",Cytotoxicity under the transfection conditions,CXCR4+U2OS cells [6],No cytotoxicity
